The IC50 is the midpoint of a concentration-inhibition curve.

IC50 data for eleven compounds are collected here from ChEMBL document CHEMBL5131529, “KRAS Inhibitors and Target Engagement Technology: From Undruggable to Druggable Targets in Cancer Therapeutics” (ACS Med Chem Lett, 2022).

Each structure is given as a SMILES string. A value given as a limit tells only on which side of the number the result lay.

Assay [1] addresses T1, GTPase KRas (Homo sapiens, UniProt P01116, G12C). Description: Inhibition of BODIPY loaded KRAS G12C mutant (unknown origin) assessed as inhibition of GDP-GTP exchange rate in presence of SOS1/GppNHp incubated for 2 hr by BODIPY fluorescence assay.
Assay [2] addresses T1, GTPase KRas. In words: Inhibition of KRAS G12C mutant in human MIA PaCa-2 cells assessed as reduction in ERK phosphorylation incubated for 2 to 4 hrs by HTRF assay. It is filed as cell-based.

T1 sequence (P01116 whole entry G12C): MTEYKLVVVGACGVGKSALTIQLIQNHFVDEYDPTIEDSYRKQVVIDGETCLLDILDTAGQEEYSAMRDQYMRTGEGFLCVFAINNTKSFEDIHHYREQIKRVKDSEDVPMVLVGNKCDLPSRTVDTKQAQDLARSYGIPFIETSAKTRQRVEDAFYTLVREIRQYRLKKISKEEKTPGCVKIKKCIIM

Turning to `C=Cc1ncc2n1CCN(c1nc(OCCN3CCOCC3)nc3c(F)c(-c4cc(O)cc5ccccc45)c(Cl)cc13)C2`, the IC50 on GTPase KRas [1] was 100 nM; at GTPase KRas [2] it was 5000 nM.
`C=Cc1ncc2n1CCN(c1nc(=O)n(-c3c(C)ccnc3C(C)C)c3nc(-c4c(O)cccc4F)c(F)cc13)C2`: the IC50 on GTPase KRas [1] is 100 nM; at GTPase KRas [2], 5000 nM; on GTPase KRas [2] (mia paca-2), 5000 nM.
Regarding `C=Cc1ncc2n1CCN(c1nc(OCC3CCCN3C)nc3c(F)c(-c4c(C)ccc5[nH]ncc45)c(Cl)cc13)C2` (stereo not drawn), the IC50 came out at 100 nM on GTPase KRas [1] and 5000 nM on GTPase KRas [2].
As for `C=Cc1ncc2n1CCN(c1nc(OC3CCCN(C)C3)nc3c(F)c(-c4cc(O)cc5ccccc45)c(Cl)cc13)C2` (stereo not drawn), the IC50 at GTPase KRas [1] is 100 nM; at GTPase KRas [2], 5000 nM.
Consider `C=Cc1ncc2n1CCN(c1nc(OC3CCN(C)CC3)nc3c(F)c(-c4cc(O)cc5ccccc45)c(Cl)cc13)C2`, for which the half-maximal inhibitory concentration (IC50) was 100 nM on GTPase KRas [1] and 5000 nM on GTPase KRas [2].
The like results for `C=Cc1ncc2n1CCN(c1nc(OCC3CCCN3C)nc3c(F)c(-c4c(O)cccc4F)c(Cl)cc13)C2` (stereo not drawn) were, in that order, 100 nM and 5000 nM.
In the case of `C=Cc1ncc2n1CCN(c1nc(OC[C@@H]3CCCN3C)nc3c(F)c(-c4cc(O)cc5ccccc45)c(Cl)cc13)C2`, the IC50 on GTPase KRas [1] was 100 nM; on GTPase KRas [2], 1000 nM.
For `C=Cc1ncc2n1CCN(c1nc(=O)n(C(C)C)c3nc(-c4c(O)cccc4F)c(F)cc13)C2`, in that order: 100 nM and 5000 nM.
In the case of `C=Cc1ncc2n1CCN(c1nc(OCC3CCCN3C)nc3c(F)c(-c4cc(O)cc5ccccc45)c(Cl)cc13)C2` (stereo not drawn), the half-inhibitory concentration (IC50) at GTPase KRas [1] was not above 100 nM; on GTPase KRas [2], 1000 nM.
`C=Cc1ncc2n1CCN(c1nc(=O)n(CC3CC3)c3nc(-c4c(O)cccc4F)c(F)cc13)C2`: the values for the IC50 on GTPase KRas [1] and on GTPase KRas [2] were 100 nM and 5000 nM, respectively.
Take `C=Cc1ncc2n1CCN(c1nc(OCCN(C)C)nc3c(F)c(-c4cc(O)cc5ccccc45)c(Cl)cc13)C2`: the IC50 at GTPase KRas [1] stood at 100 nM; at GTPase KRas [2], 1000 nM.
